Data published in ChEMBL document CHEMBL5614398, “A comprehensive review of new small molecule drugs approved by the FDA in 2022: Advance and prospect” (Eur J Med Chem, 2024).

How the values were obtained:
[1] = target: Tyrosine-protein kinase JAK2 (Homo sapiens, UniProt O60674); test: Inhibition of N-terminal human recombinant JAK2 using poly(Glu,Ala,Tyr) as substrate incubated for 2 hrs in presence of ATP by luminescence method
[2] = target: T1, Receptor-type tyrosine-protein kinase FLT3 (Homo sapiens, UniProt P36888); test: Inhibition of human FLT3 (unknown origin) using poly(Glu,Tyr) as substrate incubated for 2 hrs in presence of ATP by luminescence method
T1 sequence (P36888 whole entry): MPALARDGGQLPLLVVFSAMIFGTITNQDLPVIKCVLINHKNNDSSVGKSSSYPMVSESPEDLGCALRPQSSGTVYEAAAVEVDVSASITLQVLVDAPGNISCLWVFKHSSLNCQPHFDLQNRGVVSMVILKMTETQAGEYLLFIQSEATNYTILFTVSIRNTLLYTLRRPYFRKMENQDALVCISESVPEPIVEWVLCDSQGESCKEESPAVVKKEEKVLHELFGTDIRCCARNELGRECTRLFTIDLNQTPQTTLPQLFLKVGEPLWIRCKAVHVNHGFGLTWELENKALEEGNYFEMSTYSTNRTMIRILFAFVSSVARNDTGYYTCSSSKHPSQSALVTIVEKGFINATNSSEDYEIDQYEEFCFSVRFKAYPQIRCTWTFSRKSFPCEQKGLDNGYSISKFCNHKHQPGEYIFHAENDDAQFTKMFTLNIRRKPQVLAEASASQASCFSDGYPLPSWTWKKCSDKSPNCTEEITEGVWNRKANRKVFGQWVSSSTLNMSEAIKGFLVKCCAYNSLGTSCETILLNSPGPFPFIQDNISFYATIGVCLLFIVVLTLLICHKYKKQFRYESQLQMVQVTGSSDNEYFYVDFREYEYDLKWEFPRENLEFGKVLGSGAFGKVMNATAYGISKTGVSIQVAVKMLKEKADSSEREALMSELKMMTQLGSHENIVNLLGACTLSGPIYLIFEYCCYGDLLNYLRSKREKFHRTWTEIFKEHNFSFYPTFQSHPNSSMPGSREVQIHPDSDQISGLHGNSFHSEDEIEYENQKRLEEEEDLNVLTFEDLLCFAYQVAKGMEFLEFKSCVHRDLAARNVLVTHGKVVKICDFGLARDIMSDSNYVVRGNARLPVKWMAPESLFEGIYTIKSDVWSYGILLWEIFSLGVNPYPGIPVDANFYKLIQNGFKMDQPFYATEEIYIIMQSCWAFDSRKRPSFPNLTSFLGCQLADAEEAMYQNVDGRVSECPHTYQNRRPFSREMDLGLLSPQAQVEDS

[3] = target: Structural capsid protein (Human immunodeficiency virus 1, UniProt Q76129); test: Inhibition of HIV-1 NL4-3 monomeric capsid protein
Chain of Structural capsid protein (Q76129 whole entry): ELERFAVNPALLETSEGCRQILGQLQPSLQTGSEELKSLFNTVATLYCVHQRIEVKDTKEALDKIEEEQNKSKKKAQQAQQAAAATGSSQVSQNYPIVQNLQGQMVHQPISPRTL

[4] = target: GABA-A receptor; anion channel; test: Binding affinity to GABAA receptor (unknown origin) assessed as inhibition constant; format: protein-complex assay, Homo sapiens
[5] = Half life in human; format: ADME
[6] = Activation of Myosin ATPase activity in bovine Cardio-myofibril; parameters: species or system Bos taurus
[7] = target: Lanosterol 14-alpha demethylase (Candida albicans (strain SC5314 / ATCC MYA-2876) (Yeast), UniProt P10613); test: Binding affinity to Candida albicans SC5314 CYP51 assessed as dissociation constant
Chain of Lanosterol 14-alpha demethylase (P10613 whole entry): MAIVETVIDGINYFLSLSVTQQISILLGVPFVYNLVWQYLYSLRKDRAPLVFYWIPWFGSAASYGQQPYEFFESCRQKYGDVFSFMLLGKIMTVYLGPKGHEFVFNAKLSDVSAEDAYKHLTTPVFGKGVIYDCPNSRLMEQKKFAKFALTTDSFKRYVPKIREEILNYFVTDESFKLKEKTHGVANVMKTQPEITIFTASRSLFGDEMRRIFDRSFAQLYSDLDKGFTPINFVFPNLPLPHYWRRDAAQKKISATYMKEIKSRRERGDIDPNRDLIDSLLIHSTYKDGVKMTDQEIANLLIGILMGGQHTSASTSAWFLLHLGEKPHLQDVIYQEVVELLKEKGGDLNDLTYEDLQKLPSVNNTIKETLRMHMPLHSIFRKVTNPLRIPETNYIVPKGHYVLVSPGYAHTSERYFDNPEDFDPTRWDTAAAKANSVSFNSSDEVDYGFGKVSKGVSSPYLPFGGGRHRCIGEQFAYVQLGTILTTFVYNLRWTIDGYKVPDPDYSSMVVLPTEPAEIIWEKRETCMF

[8] = target: Prostaglandin E2 receptor EP2 subtype (Homo sapiens, UniProt P43116); test: Agonist activity at human EP2 receptor expressed in HEK293 cells; format: functional, cell-based
Chain of Prostaglandin E2 receptor EP2 subtype (P43116 whole entry): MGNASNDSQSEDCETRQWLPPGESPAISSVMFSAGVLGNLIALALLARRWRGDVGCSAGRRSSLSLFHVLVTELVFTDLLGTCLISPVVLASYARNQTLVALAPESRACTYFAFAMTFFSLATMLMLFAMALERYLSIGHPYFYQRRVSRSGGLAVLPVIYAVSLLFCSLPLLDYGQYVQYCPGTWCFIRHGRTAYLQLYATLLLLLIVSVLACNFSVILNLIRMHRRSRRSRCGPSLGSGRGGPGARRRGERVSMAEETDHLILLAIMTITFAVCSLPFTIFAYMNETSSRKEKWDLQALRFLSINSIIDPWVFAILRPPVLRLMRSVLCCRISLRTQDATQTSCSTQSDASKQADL

Chain of Tyrosine-protein kinase JAK2 (O60674 whole entry): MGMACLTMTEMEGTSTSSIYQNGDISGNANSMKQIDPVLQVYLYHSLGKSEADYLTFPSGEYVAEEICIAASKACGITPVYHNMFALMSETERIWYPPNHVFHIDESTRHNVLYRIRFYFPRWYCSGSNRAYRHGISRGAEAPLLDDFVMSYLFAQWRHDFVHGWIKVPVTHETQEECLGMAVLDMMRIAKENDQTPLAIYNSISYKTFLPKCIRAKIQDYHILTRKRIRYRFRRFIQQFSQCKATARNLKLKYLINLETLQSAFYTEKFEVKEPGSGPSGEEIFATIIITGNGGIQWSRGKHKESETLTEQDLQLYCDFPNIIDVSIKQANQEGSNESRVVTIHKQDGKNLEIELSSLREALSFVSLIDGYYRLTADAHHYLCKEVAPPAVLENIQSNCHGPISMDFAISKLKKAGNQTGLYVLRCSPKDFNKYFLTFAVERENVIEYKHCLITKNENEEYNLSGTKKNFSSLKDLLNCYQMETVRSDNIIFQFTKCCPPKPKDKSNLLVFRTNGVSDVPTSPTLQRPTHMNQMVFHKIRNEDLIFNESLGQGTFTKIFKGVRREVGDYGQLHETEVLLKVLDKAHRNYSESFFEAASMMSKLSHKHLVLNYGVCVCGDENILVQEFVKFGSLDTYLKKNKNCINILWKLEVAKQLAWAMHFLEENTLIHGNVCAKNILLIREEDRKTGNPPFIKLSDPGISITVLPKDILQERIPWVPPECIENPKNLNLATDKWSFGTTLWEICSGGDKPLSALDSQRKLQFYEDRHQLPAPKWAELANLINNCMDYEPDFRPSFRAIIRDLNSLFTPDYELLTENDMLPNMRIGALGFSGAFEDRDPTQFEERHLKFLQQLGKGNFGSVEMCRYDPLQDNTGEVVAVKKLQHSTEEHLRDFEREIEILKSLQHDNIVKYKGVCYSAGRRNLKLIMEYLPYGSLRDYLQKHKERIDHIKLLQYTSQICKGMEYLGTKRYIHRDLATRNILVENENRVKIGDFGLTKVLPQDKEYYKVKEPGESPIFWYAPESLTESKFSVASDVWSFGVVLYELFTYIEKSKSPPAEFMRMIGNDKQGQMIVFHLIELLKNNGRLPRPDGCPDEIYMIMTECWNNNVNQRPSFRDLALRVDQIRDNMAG

SMILES | EC50 [3] | other results
COc1cc(-c2ccnc(Nc3cccc(N(C)C)c3)n2)ccc1O | – | IC50 [1]: 23 nM; IC50 [2]: 22 nM
Cn1nc(N)c2cccc(-c3cccnc3[C@H](Cc3cc(F)cc(F)c3)NC(=O)Cn3nc(C(F)(F)F)c4c3C(F)(F)[C@@H]3C[C@H]43)c21 | 19 nM | –
CC(=O)[C@H]1CC[C@H]2[C@@H]3CC[C@H]4C[C@](C)(O)CC[C@]4(C)[C@H]3CC[C@]12C [GANAXOLONE] | – | Ki [4]: 790 nM
NC(=O)c1cccc(-c2cccnc2[C@H](Cc2cc(F)cc(F)c2)NC(=O)Cn2nc(C(F)(F)F)c3c2C(F)(F)[C@@H]2C[C@H]32)c1 | 167 nM | –
COc1ccc(N(C)C(=O)[C@H](Cc2ccccc2)NC(=O)Cc2c[nH]c3ccc(O)cc23)cc1 | 52 nM | –
NC(=O)c1cccc(-c2cccnc2[C@H](Cc2cc(F)cc(F)c2)NC(=O)Cc2c[nH]c3ccc(O)cc23)c1 | 150 nM | –
Cc1[nH]c2ccccc2c1CC(=O)N[C@@H](Cc1ccccc1)C(=O)N(C)c1ccccc1 | – | half-life [5]: 3 min
CC(C)n1c(=O)cc(N[C@@H](C)c2ccccc2)[nH]c1=O | – | EC50 [6]: 711 nM
O[C@@](Cn1cnnn1)(c1ccc(F)cc1F)C(F)(F)c1ccc(-c2ccc(OCC(F)(F)F)cc2)cn1 [OTESECONAZOLE] | – | Kd [7]: ≤ 39 nM
CC(C)OC(=O)CNc1cccc(CN(Cc2ccc(-n3cccn3)cc2)S(=O)(=O)c2cccnc2)n1 [OMIDENEPAG ISOPROPYL] | – | EC50 [8]: 1.1 nM
CC(C)(C#Cc1ccc(-c2ccc(Cl)c3c(NS(C)(=O)=O)nn(CC(F)(F)F)c23)c([C@H](Cc2cc(F)cc(F)c2)NC(=O)Cn2nc(C(F)(F)F)c3c2C(F)(F)[C@@H]2C[C@H]32)n1)S(C)(=O)=O | 0.05 nM | –
Cn1nc(NS(C)(=O)=O)c2cccc(-c3cccnc3[C@H](Cc3cc(F)cc(F)c3)NC(=O)Cn3nc(C(F)(F)F)c4c3C(F)(F)[C@@H]3C[C@H]43)c21 | 12 nM | –
Cn1nc(NS(C)(=O)=O)c2c(Cl)ccc(-c3ccc(C#CC(C)(C)S(C)(=O)=O)nc3[C@H](Cc3cc(F)cc(F)c3)NC(=O)Cn3nc(C(F)(F)F)c4c3C(F)(F)[C@@H]3C[C@H]43)c21 | 0.2 nM | –
